Results published in PubChem BioAssay (NCI).
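Values below derive from 48-hour exposures of cells grown in 96-well plates, with endpoints linearly interpolated between the two concentrations bracketing the appropriate inhibition level. TGI marks complete inhibition of growth.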

Experiments:
Assay in all cases: NCI tumour cell line growth inhibition, 48 h
NCI-H226 lung = test system: NCI-H226 lung
HCT-15 colon = test system: HCT-15 colon
MOLT-4 leukemia = test system: MOLT-4 leukemia
SW-620 colon = test system: SW-620 colon
HCT-116 colon = test system: HCT-116 colon
OVCAR-8 ovarian = test system: OVCAR-8 ovarian
RXF 393 renal = test system: RXF 393 renal
SF-539 CNS = test system: SF-539 CNS
SNB-75 CNS = test system: SNB-75 CNS
COLO 205 colon = test system: COLO 205 colon
NCI-H522 lung = test system: NCI-H522 lung
HCC-2998 colon = test system: HCC-2998 colon
SNB-19 CNS = test system: SNB-19 CNS
HOP-18 NSCLC = test system: HOP-18 NSCLC
DLD-1 colon = test system: DLD-1 colon
K-562 leukemia = test system: K-562 leukemia
SN12C renal = test system: SN12C renal
SNB-78 CNS = test system: SNB-78 CNS
CCRF-CEM leukemia = test system: CCRF-CEM leukemia
A498 renal = test system: A498 renal
KM12 colon = test system: KM12 colon
SK-MEL-28 melanoma = test system: SK-MEL-28 melanoma
SF-268 CNS = test system: SF-268 CNS
HL-60(TB) leukemia = test system: HL-60(TB) leukemia
LXFL 529 NSCLC = test system: LXFL 529 NSCLC
XF 498 CNS = test system: XF 498 CNS
UO-31 renal = test system: UO-31 renal
OVCAR-5 ovarian = test system: OVCAR-5 ovarian
HOP-92 NSCLC = test system: HOP-92 NSCLC
DMS 273 small cell lung = test system: DMS 273 small cell lung
SK-MEL-5 melanoma = test system: SK-MEL-5 melanoma
NCI-H460 lung = test system: NCI-H460 lung
KM20L2 colon = test system: KM20L2 colon
M19-MEL melanoma = test system: M19-MEL melanoma
SF-295 CNS = test system: SF-295 CNS
ACHN renal = test system: ACHN renal
786-0 renal = test system: 786-0 renal
HT29 colon = test system: HT29 colon
NCI-H23 lung = test system: NCI-H23 lung
IGROV1 ovarian = test system: IGROV1 ovarian
SK-OV-3 ovarian = test system: SK-OV-3 ovarian
SK-MEL-2 melanoma = test system: SK-MEL-2 melanoma
RXF-631 renal = test system: RXF-631 renal
OVCAR-4 ovarian = test system: OVCAR-4 ovarian
M14 melanoma = test system: M14 melanoma
UACC-62 melanoma = test system: UACC-62 melanoma
SR leukemia = test system: SR leukemia
UACC-257 melanoma = test system: UACC-257 melanoma
A549 NSCLC = test system: A549 NSCLC
LOX IMVI melanoma = test system: LOX IMVI melanoma
TK-10 renal = test system: TK-10 renal
OVCAR-3 ovarian = test system: OVCAR-3 ovarian
HOP-62 NSCLC = test system: HOP-62 NSCLC
U251 CNS = test system: U251 CNS
EKVX NSCLC = test system: EKVX NSCLC
MALME-3M melanoma = test system: MALME-3M melanoma
CAKI-1 renal = test system: CAKI-1 renal
DMS 114 small cell lung = test system: DMS 114 small cell lung
P388 leukemia = test system: P388 leukemia
NCI/ADR-RES ovarian = test system: NCI/ADR-RES ovarian
SN12K1 renal = test system: SN12K1 renal
MCF7 breast = test system: MCF7 breast
RPMI-8226 leukemia = test system: RPMI-8226 leukemia
P388/ADR leukemia = test system: P388/ADR leukemia

CCOC(=O)C1=C(NNC(=O)Cc2ccccc2)CSC1=Nc1ccccc1 was tested, and the TGI (NCI-H226 lung) was greater than 100 µM, the TGI (HCT-15 colon) was greater than 100 µM and the TGI (MOLT-4 leukemia) was greater than 100 µM. It also gave a TGI (SW-620 colon) greater than 100 µM, a TGI (HCT-116 colon) greater than 100 µM and a TGI (OVCAR-8 ovarian) greater than 100 µM. It also gave a TGI (RXF 393 renal) greater than 100 µM, a TGI (SF-539 CNS) greater than 100 µM and a TGI (SNB-75 CNS) greater than 100 µM. The TGI (COLO 205 colon) was greater than 100 µM, the TGI (NCI-H522 lung) was greater than 100 µM and the TGI (HCC-2998 colon) was greater than 100 µM. For the same molecule, the TGI (SNB-19 CNS) was greater than 100 µM, the TGI (HOP-18 NSCLC) was greater than 100 µM and the TGI (DLD-1 colon) was greater than 100 µM. It also gave a TGI (K-562 leukemia) greater than 100 µM, a TGI (SN12C renal) greater than 100 µM and a TGI (SNB-78 CNS) greater than 100 µM. It also gave a TGI (CCRF-CEM leukemia) greater than 100 µM, a TGI (A498 renal) greater than 100 µM and a TGI (KM12 colon) greater than 100 µM. The TGI (SK-MEL-28 melanoma) was greater than 100 µM, the TGI (SF-268 CNS) was greater than 100 µM and the TGI (HL-60(TB) leukemia) was greater than 100 µM. For the same molecule, the TGI (LXFL 529 NSCLC) was greater than 100 µM, the TGI (XF 498 CNS) was greater than 100 µM and the TGI (UO-31 renal) was greater than 100 µM. For the same molecule, the TGI (OVCAR-5 ovarian) was greater than 100 µM, the TGI (HOP-92 NSCLC) was greater than 100 µM and the TGI (DMS 273 small cell lung) was greater than 100 µM. It also gave a TGI (SK-MEL-5 melanoma) greater than 100 µM, a TGI (NCI-H460 lung) greater than 100 µM and a TGI (KM20L2 colon) greater than 100 µM. For the same molecule, the TGI (M19-MEL melanoma) was greater than 100 µM, the TGI (SF-295 CNS) was greater than 100 µM and the TGI (ACHN renal) was greater than 100 µM. It also gave a TGI (786-0 renal) greater than 100 µM, a TGI (HT29 colon) greater than 100 µM and a TGI (NCI-H23 lung) greater than 100 µM. The TGI (IGROV1 ovarian) was greater than 100 µM, the TGI (SK-OV-3 ovarian) was greater than 100 µM and the TGI (SK-MEL-2 melanoma) was greater than 100 µM. The TGI (RXF-631 renal) was greater than 100 µM, the TGI (OVCAR-4 ovarian) was greater than 100 µM and the TGI (M14 melanoma) was greater than 100 µM. For the same molecule, the TGI (UACC-62 melanoma) was greater than 100 µM, the TGI (SR leukemia) was greater than 100 µM and the TGI (UACC-257 melanoma) was greater than 100 µM. For the same molecule, the TGI (A549 NSCLC) was greater than 100 µM, the TGI (LOX IMVI melanoma) was greater than 100 µM and the TGI (TK-10 renal) was greater than 100 µM. It also gave a TGI (OVCAR-3 ovarian) greater than 100 µM, a TGI (HOP-62 NSCLC) greater than 100 µM and a TGI (U251 CNS) greater than 100 µM. The TGI (EKVX NSCLC) was greater than 100 µM, the TGI (MALME-3M melanoma) was greater than 100 µM and the TGI (CAKI-1 renal) was greater than 100 µM.

c1ccc(C(c2ccccc2)[P+](c2ccccc2)(c2ccccc2)c2ccccc2)cc1 gave a TGI (NCI-H226 lung) of 6.03 µM, a TGI (HCT-15 colon) of 17.9 µM and a TGI (MOLT-4 leukemia) of 4.06 µM. For the same molecule, the TGI (SW-620 colon) was 13.2 µM, the TGI (HCT-116 colon) was 5.02 µM and the TGI (OVCAR-8 ovarian) was 13.5 µM. It also gave a TGI (RXF 393 renal) of 10.6 µM, a TGI (SF-539 CNS) of 6.31 µM and a TGI (SNB-75 CNS) of 5.17 µM. It also gave a TGI (DMS 114 small cell lung) of 2.73 µM, a TGI (COLO 205 colon) of 1.2 µM and a TGI (NCI-H522 lung) of 1.14 µM. It also gave a TGI (HCC-2998 colon) of 11.7 µM, a TGI (P388 leukemia) of 1.89 µM and a TGI (SNB-19 CNS) of 10 µM. For the same molecule, the TGI (HOP-18 NSCLC) was 2.74 µM, the TGI (DLD-1 colon) was 14.2 µM and the TGI (K-562 leukemia) was 10.1 µM. The TGI (SN12C renal) was 11.7 µM, the TGI (SNB-78 CNS) was 12.9 µM and the TGI (NCI/ADR-RES ovarian) was greater than 100 µM. It also gave a TGI (CCRF-CEM leukemia) of 14.6 µM, a TGI (A498 renal) of 8.62 µM and a TGI (KM12 colon) of 2.7 µM. For the same molecule, the TGI (SK-MEL-28 melanoma) was 5.18 µM, the TGI (SF-268 CNS) was 15.3 µM and the TGI (HL-60(TB) leukemia) was 4.05 µM. For the same molecule, the TGI (XF 498 CNS) was 0.737 µM, the TGI (UO-31 renal) was 7.95 µM and the TGI (OVCAR-5 ovarian) was 13.3 µM. For the same molecule, the TGI (HOP-92 NSCLC) was 2.79 µM, the TGI (DMS 273 small cell lung) was 2.17 µM and the TGI (SK-MEL-5 melanoma) was 1.15 µM. For the same molecule, the TGI (NCI-H460 lung) was 11.5 µM, the TGI (KM20L2 colon) was 11.8 µM and the TGI (M19-MEL melanoma) was 9.69 µM. For the same molecule, the TGI (SF-295 CNS) was 7.27 µM, the TGI (SN12K1 renal) was 12.3 µM and the TGI (MCF7 breast) was 11.9 µM. It also gave a TGI (RPMI-8226 leukemia) of 1.28 µM, a TGI (HT29 colon) of 6.73 µM and a TGI (NCI-H23 lung) of 5.05 µM. For the same molecule, the TGI (IGROV1 ovarian) was 8.64 µM, the TGI (SK-OV-3 ovarian) was 2.68 µM and the TGI (SK-MEL-2 melanoma) was 1.25 µM. The TGI (OVCAR-4 ovarian) was 10 µM, the TGI (UACC-62 melanoma) was 3.56 µM and the TGI (UACC-257 melanoma) was 3.17 µM. The TGI (P388/ADR leukemia) was 31.8 µM, the TGI (A549 NSCLC) was 14.6 µM and the TGI (LOX IMVI melanoma) was 1.52 µM. The TGI (OVCAR-3 ovarian) was 3 µM, the TGI (HOP-62 NSCLC) was 6.63 µM and the TGI (U251 CNS) was 12.1 µM. It also gave a TGI (EKVX NSCLC) of 50.4 µM, a TGI (MALME-3M melanoma) of 14.7 µM and a TGI (CAKI-1 renal) of 8.47 µM.

For O=C(c1ccccc1)[C@H]1Nc2ccc(Cl)cc2[C@H]2OCCC[C@@H]12, the TGI (NCI-H226 lung) was 47.7 µM, the TGI (HCT-15 colon) was 43.8 µM and the TGI (MOLT-4 leukemia) was 61.7 µM. It also gave a TGI (SW-620 colon) of 39.1 µM, a TGI (HCT-116 colon) of 31.5 µM and a TGI (OVCAR-8 ovarian) of 41.9 µM. It also gave a TGI (RXF 393 renal) of 32.4 µM, a TGI (DMS 114 small cell lung) of 37.1 µM and a TGI (COLO 205 colon) of 45.7 µM. It also gave a TGI (NCI-H522 lung) of 36.8 µM, a TGI (HCC-2998 colon) of 45.8 µM and a TGI (SNB-19 CNS) of 90.3 µM. It also gave a TGI (HOP-18 NSCLC) of 55.7 µM, a TGI (K-562 leukemia) of 51.4 µM and a TGI (SN12C renal) of 37.5 µM. For the same molecule, the TGI (SNB-78 CNS) was 72.1 µM, the TGI (KM12 colon) was 34.1 µM and the TGI (SK-MEL-28 melanoma) was 32.2 µM. It also gave a TGI (SF-268 CNS) of 39.5 µM, a TGI (LXFL 529 NSCLC) of 33.5 µM and a TGI (XF 498 CNS) of 33.6 µM. It also gave a TGI (UO-31 renal) of 33 µM, a TGI (OVCAR-5 ovarian) of 35.3 µM and a TGI (DMS 273 small cell lung) of 39 µM. It also gave a TGI (NCI-H460 lung) of 34.5 µM, a TGI (KM20L2 colon) of 39.4 µM and a TGI (M19-MEL melanoma) of 49.1 µM. It also gave a TGI (SF-295 CNS) of 32.8 µM, a TGI (ACHN renal) of 93.5 µM and a TGI (RPMI-8226 leukemia) of 57.7 µM. For the same molecule, the TGI (HT29 colon) was 35.3 µM, the TGI (NCI-H23 lung) was 52 µM and the TGI (IGROV1 ovarian) was greater than 100 µM. For the same molecule, the TGI (SK-MEL-2 melanoma) was 43.9 µM, the TGI (RXF-631 renal) was 34.5 µM and the TGI (OVCAR-4 ovarian) was 45 µM. The TGI (M14 melanoma) was 31.9 µM, the TGI (UACC-62 melanoma) was 33.5 µM and the TGI (SR leukemia) was 79.2 µM. For the same molecule, the TGI (LOX IMVI melanoma) was 31.2 µM, the TGI (TK-10 renal) was 64.6 µM and the TGI (OVCAR-3 ovarian) was 30.7 µM. It also gave a TGI (HOP-62 NSCLC) of 32.6 µM, a TGI (U251 CNS) of 31.7 µM and a TGI (EKVX NSCLC) of 50.4 µM. It also gave a TGI (MALME-3M melanoma) of 48.1 µM and a TGI (CAKI-1 renal) of 63 µM.
